Laboratory results from PubChem BioAssay AID192 (DTP/NCI, 2004).
Inconclusive results and toxic doses are left out.

Test system: BDF1 mice, B16 melanoma ip, median survival T/C
Experiment: NCI In Vivo Anticancer Drug Screen. Data for tumor model B16 Melanoma (intraperitoneal) in B6D2F1 (BDF1) mice
Conditions: endpoint: median survival time, higher = longer survival
How it was run: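 The ratio T/C compares compound-treated mice with vehicle-treated controls, using survival or tumor size as the endpoint in a transplantable tumor model.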

[1] = dose: 100.0 mg/kg/injection, schedule: Q01DX009 (ip), vehicle: Klucel (hydroxypropylcellulose) (HPC)
[2] = dose: 200.0 mg/kg/injection, schedule: Q01DX009 (ip), vehicle: Klucel (hydroxypropylcellulose) (HPC)
[3] = dose: 400.0 mg/kg/injection, schedule: Q01DX009 (ip), vehicle: Klucel (hydroxypropylcellulose) (HPC)
[4] = dose: 100.0 mg/kg/injection, schedule: Q01DX009 (ip), vehicle: saline
[5] = dose: 200.0 mg/kg/injection, schedule: Q01DX009 (ip), vehicle: saline
[6] = dose: 50.0 mg/kg/injection, schedule: Q01DX009 (ip), vehicle: saline
[7] = dose: 100.0 mg/kg/injection, schedule: Q04DX003 (ip), vehicle: saline
[8] = dose: 200.0 mg/kg/injection, schedule: Q04DX003 (ip), vehicle: saline
[9] = dose: 400.0 mg/kg/injection, schedule: Q04DX003 (ip), vehicle: saline

With `COc1ccc(NC(=O)Oc2c(C(C)C)cccc2C(C)C)cc1` the T/C [1] was 96 % of control, the T/C (dose: 100.0 mg/kg/injection, schedule: Q04DX003 (ip), vehicle: Klucel (hydroxypropylcellulose) (HPC)) was 110 % of control and the T/C [2] was 96 % of control. The T/C (dose: 200.0 mg/kg/injection, schedule: Q04DX003 (ip), vehicle: Klucel (hydroxypropylcellulose) (HPC)) was 103 % of control, the T/C [3] was 89 % of control and the T/C (dose: 400.0 mg/kg/injection, schedule: Q04DX003 (ip), vehicle: Klucel (hydroxypropylcellulose) (HPC)) was 103 % of control.
In the case of `CCOC(=O)NC(C)(C)CC(C)(C)C`, the T/C [1] is reported as 106 % of control.
`Cc1ccc(Cl)cc1NC(=O)c1ccc(Cl)cc1` was tested, and the T/C [1] was 94 % of control, the T/C [2] was 101 % of control and the T/C [3] was 116 % of control.
In the case of `CCCCCCCCC(=O)NCCOC`, the T/C (dose: 50.0 mg/kg/injection, schedule: Q01DX009 (ip), vehicle: Klucel (hydroxypropylcellulose) (HPC)) is reported as 104 % of control, the T/C [1] is reported as 101 % of control and the T/C [2] is reported as 101 % of control.
`O=C(O)C(O)C(O)C1[O][Sb][O]C1CO` (stereo unspecified) was tested, and the T/C (dose: 5.0 mg/kg/injection, schedule: Q01DX009 (ip), vehicle: saline) was 96 % of control, the T/C [4] was 100 % of control and the T/C [5] was 88 % of control.
In the case of `CCCC(=O)OC1C=C2N3C(=O)C4CC56C(=CC(OC(C)=O)C7OC75)N4C(=O)C3CC26C2OC12` (stereo unspecified), the T/C (dose: 0.13 mg/kg/injection, schedule: Q01DX009 (ip), vehicle: Klucel (hydroxypropylcellulose) (HPC)) is reported as 90 % of control, the T/C (dose: 0.25 mg/kg/injection, schedule: Q01DX009 (ip), vehicle: Klucel (hydroxypropylcellulose) (HPC)) is reported as 101 % of control and the T/C (dose: 0.5 mg/kg/injection, schedule: Q01DX009 (ip), vehicle: Klucel (hydroxypropylcellulose) (HPC)) is reported as 90 % of control.
In the case of `O=C(O)C1CC1.[Ag]`, the T/C (dose: 0.78 mg/kg/injection, schedule: Q01DX009 (ip), vehicle: water) is reported as 114 % of control, the T/C (dose: 1.56 mg/kg/injection, schedule: Q01DX009 (ip), vehicle: water) is reported as 108 % of control and the T/C (dose: 3.12 mg/kg/injection, schedule: Q01DX009 (ip), vehicle: water) is reported as 108 % of control. The T/C (dose: 6.25 mg/kg/injection, schedule: Q01DX009 (ip), vehicle: water) was 93 % of control and the T/C (dose: 12.5 mg/kg/injection, schedule: Q01DX009 (ip), vehicle: water) was 91 % of control.
For `CCCC(=O)Nc1ncnc2c1ncn2C1OC2COP(=O)(O)OC2C1OC(=O)CCC` (stereo unspecified), the T/C [6] was 100 % of control, the T/C [4] was 94 % of control and the T/C [5] was 89 % of control.
With `CC1(C)COCN1COCCOCN1COCC1(C)C` the T/C (dose: 6.25 mg/kg/injection, schedule: Q01DX009 (ip), vehicle: saline) was 102 % of control, the T/C (dose: 12.5 mg/kg/injection, schedule: Q01DX009 (ip), vehicle: saline) was 103 % of control and the T/C (dose: 25.0 mg/kg/injection, schedule: Q01DX009 (ip), vehicle: saline) was 113 % of control. For the same molecule, the T/C [6] was 118 % of control and the T/C [4] was 120 % of control.
`N#[N+]c1c(O)cc(S(=O)(=O)O)c2ccccc12` was tested, and the T/C [7] was 95 % of control, the T/C [8] was 93 % of control and the T/C [9] was 90 % of control.
With `C1CCC2[N-]CC3CCCCC3[N-]CC3CCCCC3[N-]CC3CCCCC3[N-]CC2C1.[Cu+2].[O-][Cl+3]([O-])([O-])O` (stereo unspecified) the T/C (dose: 3.12 mg/kg/injection, schedule: Q01DX009 (ip), vehicle: Klucel (hydroxypropylcellulose) (HPC)) was 153 % of control, the T/C (dose: 6.25 mg/kg/injection, schedule: Q01DX009 (ip), vehicle: Klucel (hydroxypropylcellulose) (HPC)) was 161 % of control and the T/C (dose: 12.5 mg/kg/injection, schedule: Q01DX009 (ip), vehicle: Klucel (hydroxypropylcellulose) (HPC)) was 164 % of control.
`CC(CCOCC1CO1)OCC1CO1` (stereo unspecified) was tested, and the T/C [7] was 100 % of control, the T/C [8] was 108 % of control and the T/C [9] was 110 % of control.
With `O=C([O-])C[n+]1ccccc1` the T/C [4] was 108 % of control and the T/C [5] was 103 % of control.
`Cc1ccc(S(=O)(=O)Nc2ncc([N+](=O)[O-])s2)cc1` was tested, and the T/C (dose: 12.5 mg/kg/injection, schedule: Q04DX003 (ip), vehicle: saline with Tween-80) was 102 % of control, the T/C (dose: 25.0 mg/kg/injection, schedule: Q04DX003 (ip), vehicle: saline with Tween-80) was 109 % of control and the T/C (dose: 50.0 mg/kg/injection, schedule: Q04DX003 (ip), vehicle: saline with Tween-80) was 109 % of control.
